The record followed here is article PMC11856108, “Capsaicin (But Not Other Vanillins) Enhances Estrogen Binding to Its Receptor: Implications for Power Sports and Cancers” (Life, 2025).

Assay [1] is described as follows: Binding to steroid hormone by UV spectroscopy. Here is the method: (§1) UV spectroscopy in a crystal plate was used to investigate whether CAP has specificity for estrogen alone or whether it can bind to other naturally occurring hormones. To start, CAP was dissolved in a 1:1 solution of water to ethanol at 1 mg/mL ( 3.27×10^−3 M ) and then diluted by thirds eight times. Next, the hormones were dissolved in a 1:1 solution of water to ethanol at a 1/100 dilution. An amount of 50 μL of each CAP dilution was added to 3 wells of a crystal plate, with one well serving as the control, with another 50 μL of 1:1 water to ethanol added, and the other two serving as experimental duplicates, with 50 μL of the prepared hormone solution added. Then, two additional wells were prepared to serve as controls: one containing 100 μL of 1:1 water to ethanol and the other containing 50 μL of prepared hormone solution and 50 μL of 1:1 water to ethanol. Finally, the plate was incubated for 1 h and read in a Spectramax UV-VIS scanning spectrophotometer, spanning wavelengths from 190 to 400 nm. Data analysis involved the subtraction of observed absorbance values from expected absorbance values generated from the control wells ([CAP + 1:1 solution] + [hormone + 1:1 solution] − [1:1 solution]) and plotting them as a function of CAP concentration. Because the solvent (1:1 solution of water–ethanol) was used as a control and subtracted from all wells, the resulting data reflected only the absorbances of the solute compounds. Since each compound has a different lambda maximal absorbance, analysis of the resulting data required finding one common wavelength at which the additions and subtractions of the spectra could be carried out and at which the absorbance of each compound was maximized.
Experiments were also performed to test whether the enhancement or antagonism observed in estradiol binding to the ESR1 might be due to vanilloid compounds binding directly to estradiol or to related steroidal hormones, perhaps protecting them from oxidation or forming a complex that prevented the estradiol binding to its receptor. No vanilloid compound bound to a measurable degree to estradiol or any other steroidal hormone tested.

The target in assay [2] is insulin (human recombinant) (Homo sapiens, UniProt P01308). In words: Binding to insulin by ultraviolet spectroscopy. As to conditions: UV spectroscopy.
Assay [3] concerns the target insulin receptor (IR) (Homo sapiens, UniProt P06213). In words: Binding to the insulin receptor by ultraviolet spectroscopy. As to conditions: UV spectroscopy. The procedure:
as §1
[17, 19, 20, 21, 22, 23]. […] Because CAP binds to INS, it was possible that it might antagonize INS binding to its receptor. […] Two types of ultraviolet spectroscopy experiments were performed. In one, INS (1 µM) and the IR were kept constant and the concentration of CAP increased from 0.1 µM to 100 µM. In the other, the CAP (25 µM) and IR were kept constant and the concentration of INS increased from 10 nM to 10 µM. In neither experiment was any significant change in the INS binding curve observed.
CAP did bind to the ESR1 with what appears to be a high affinity (Kd = 0.9 µM) and a lower affinity (Kd = 10 µM) site. […] Other vanilloid compounds also bound to the ESR1 but with lower affinity than CAP (Figure 6). None bound to the IR.

The target of assay [4] is T1, ESR1 (Homo sapiens, UniProt P03372).
T1 construct: purchased Invitrogen-Thermofisher
T1 sequence (P03372 1-595): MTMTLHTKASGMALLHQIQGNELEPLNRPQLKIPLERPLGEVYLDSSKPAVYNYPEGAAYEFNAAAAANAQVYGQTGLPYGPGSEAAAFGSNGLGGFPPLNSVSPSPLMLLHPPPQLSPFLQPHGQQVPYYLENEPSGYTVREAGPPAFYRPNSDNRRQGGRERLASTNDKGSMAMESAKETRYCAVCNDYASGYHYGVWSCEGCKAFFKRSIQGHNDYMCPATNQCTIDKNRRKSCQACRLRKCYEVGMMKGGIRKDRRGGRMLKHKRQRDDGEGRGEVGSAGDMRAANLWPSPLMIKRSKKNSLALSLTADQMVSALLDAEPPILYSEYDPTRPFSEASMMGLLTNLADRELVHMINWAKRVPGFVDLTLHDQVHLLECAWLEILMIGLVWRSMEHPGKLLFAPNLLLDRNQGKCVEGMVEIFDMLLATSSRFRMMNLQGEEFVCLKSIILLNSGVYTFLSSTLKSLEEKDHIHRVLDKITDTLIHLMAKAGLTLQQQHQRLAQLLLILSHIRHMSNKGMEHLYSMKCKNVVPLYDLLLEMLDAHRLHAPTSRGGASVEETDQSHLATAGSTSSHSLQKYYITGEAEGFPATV
In words: Competitive-binding ELISA of EST-HRP binding to the estrogen receptor.

Assay [5] has as its target T2, Estrogen receptor alpha (ER alpha) recombinant protein (ESR1) (Homo sapiens, UniProt P03372).
T2 sequence (P03372 1-595): T1 sequence (P03372 1-595)
In words: Binding to the estrogen receptor by ultraviolet spectroscopy. As to conditions: UV spectroscopy; listed as vanillin.

SMILES strings stand for the structures. Read-outs that look alike come from different tables or passages of the source.

Sequence of insulin (human recombinant) (P01308 25-54 limits assumed): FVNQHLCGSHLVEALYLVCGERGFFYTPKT
Sequence of insulin (human recombinant) (P01308 90-110 limits assumed): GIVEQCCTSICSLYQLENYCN
Sequence of insulin receptor (IR) (P06213 28-1382, species assumed): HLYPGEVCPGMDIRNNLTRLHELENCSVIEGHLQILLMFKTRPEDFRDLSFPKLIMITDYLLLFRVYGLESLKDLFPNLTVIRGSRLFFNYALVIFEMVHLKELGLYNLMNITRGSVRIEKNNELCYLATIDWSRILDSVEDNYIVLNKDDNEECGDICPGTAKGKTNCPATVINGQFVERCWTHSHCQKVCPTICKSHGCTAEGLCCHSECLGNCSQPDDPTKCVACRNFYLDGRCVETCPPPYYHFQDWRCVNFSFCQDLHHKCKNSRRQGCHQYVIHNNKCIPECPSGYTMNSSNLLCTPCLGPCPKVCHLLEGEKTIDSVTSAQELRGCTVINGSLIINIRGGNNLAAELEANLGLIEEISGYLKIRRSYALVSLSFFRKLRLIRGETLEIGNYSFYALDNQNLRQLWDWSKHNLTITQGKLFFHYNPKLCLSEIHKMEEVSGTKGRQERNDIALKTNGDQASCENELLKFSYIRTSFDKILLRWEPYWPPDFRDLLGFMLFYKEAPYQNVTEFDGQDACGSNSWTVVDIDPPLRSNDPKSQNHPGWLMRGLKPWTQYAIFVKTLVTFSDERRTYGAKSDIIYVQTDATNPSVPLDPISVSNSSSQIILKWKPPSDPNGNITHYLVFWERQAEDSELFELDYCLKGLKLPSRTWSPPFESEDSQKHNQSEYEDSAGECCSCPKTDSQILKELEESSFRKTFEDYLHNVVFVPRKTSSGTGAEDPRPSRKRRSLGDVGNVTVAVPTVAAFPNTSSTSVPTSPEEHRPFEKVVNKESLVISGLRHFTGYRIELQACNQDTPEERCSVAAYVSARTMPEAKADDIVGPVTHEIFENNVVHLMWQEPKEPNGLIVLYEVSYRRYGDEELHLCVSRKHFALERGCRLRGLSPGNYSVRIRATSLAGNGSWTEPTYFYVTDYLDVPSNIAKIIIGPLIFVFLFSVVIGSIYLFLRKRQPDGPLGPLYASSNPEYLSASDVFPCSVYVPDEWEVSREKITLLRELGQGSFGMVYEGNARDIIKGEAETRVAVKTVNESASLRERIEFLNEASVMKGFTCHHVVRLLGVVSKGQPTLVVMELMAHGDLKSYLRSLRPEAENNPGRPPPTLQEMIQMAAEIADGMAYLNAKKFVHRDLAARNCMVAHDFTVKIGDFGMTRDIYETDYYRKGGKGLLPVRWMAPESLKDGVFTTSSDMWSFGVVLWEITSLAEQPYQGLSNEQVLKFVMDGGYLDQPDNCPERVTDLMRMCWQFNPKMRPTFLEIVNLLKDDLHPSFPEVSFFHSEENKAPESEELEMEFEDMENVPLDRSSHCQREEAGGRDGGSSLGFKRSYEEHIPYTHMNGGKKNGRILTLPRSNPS

Consider `CC(=O)Nc1ccc(O)cc1` [Acetaminophen, acetaminophen], for which, in assay [1], the “Binding (Kd) 4-Androstene-3,17-dione” value was “No binding”, the “Binding (Kd) 5-Pregnan-3β-OL-2O-one” value was “No binding”, the “Binding (Kd) Estradiol” value is recorded as “No binding” and the “Binding (Kd) Estriol” value is on record as “No binding”. The “Binding (Kd) Progesterone” value in assay [1] is “No binding”. For the same molecule, the “Binding (Kd) Estradiol” value in assay [1] (listed as acetaminophen) is “did not bind directly to estradiol”. For the same molecule, the “binding to insulin (in words)” value in assay [2] was “Neither vanillin nor acetaminophen bound significantly to insulin”.

For `COc1cc(C=O)ccc1O` [Vanillin, vanillin], in assay [1], the “Binding (Kd) 4-Androstene-3,17-dione” value is recorded as “No binding”, the “Binding (Kd) 5-Pregnan-3β-OL-2O-one” value was “No binding”, the “Binding (Kd) Estradiol” value is “No binding” and the “Binding (Kd) Estriol” value is given as “No binding”. In addition, the “Binding (Kd) Progesterone” value in assay [1] is listed as “No binding”. The “Binding (Kd) Estradiol” value in assay [1] (listed as vanillin) was “did not bind directly to estradiol”. In addition, the “binding to the insulin receptor (in words)” value in assay [3] is on record as “did not bind significantly”. In addition, the “effect on estradiol (EST-HRP) binding to the estrogen receptor” value in assay [4] is on record as “no effect on estradiol binding”. In addition, the “effect on estradiol (EST-HRP) binding to the estrogen receptor” value in assay [4] (listed as VAN) is on record as “no significant effect on estradiol binding”. In addition, in assay [5], the “binding to the estrogen receptor (in words)” value is listed as “weakly to the estrogen receptor”. Also, the “binding to insulin (in words)” value in assay [2] (listed as vanillin) is “Neither vanillin nor acetaminophen bound significantly to insulin”.

`C[C@]12CC[C@@H]3c4ccc(O)cc4CC[C@H]3[C@@H]1CC[C@@H]2O` [estradiol]: the “binding to the insulin receptor (in words)” value in assay [3] is listed as “did not bind to the IR”.

For `COc1cc(C(=O)O)ccc1O` [Van Acid, vanillic acid], in assay [1], the “Binding (Kd) 4-Androstene-3,17-dione” value is given as “No binding”, the “Binding (Kd) 5-Pregnan-3β-OL-2O-one” value is recorded as “No binding”, the “Binding (Kd) Estradiol” value was “No binding” and the “Binding (Kd) Estriol” value was “No binding”. For the same molecule, in assay [1], the “Binding (Kd) Progesterone” value is “No binding”. For the same molecule, the “Binding (Kd) Estradiol” value in assay [1] (listed as vanillic acid) is recorded as “did not bind directly to estradiol”. For the same molecule, the Kd in assay [2] (Binding (Kd) Insulin, Table 1) was found to be 4 µM. The “binding to insulin (in words)” value in assay [2] was “bound almost as well as capsaicin”.

By Kd is commonly meant the free concentration of one partner at which half of the binding sites on the other are occupied at equilibrium, for simple one-to-one binding.
